The text below walks through data of patent US20250127905A1, “GLUTARIMIDE COMPOUND AND USE THEREOF” (MEDSHINE DISCOVERY INC., priority 2021, published 2025).

Assay [1] concerns interleukin 17, interleukin 6, and tumor necrosis factor α. Kind of assay: Imiquimod-induced psoriasis model in mice: relative levels of skin inflammatory factors (fluorescence quantitative PCR). Conditions: lesion skin D7, Mean±SEM. Format: in vivo, BALB/c mice. As for the experimental part: (§1) Experimental grouping and administration: After acclimatization, […] male BALB/c mice were randomly divided into 5 groups (n=6 or 9) according to body weight: normal (control, G1) group, vehicle (model, G2) group, test compound low-dose (30 mg/kg, BID, G3) group, test compound medium-dose (100 mg/kg, BID, G4) group, and test compound high-dose (300 mg/kg, BID, G5) group.
(§2) Model induction: the dorsal skin of the experimental animals was shaved (surface area=2×3 cm) before the application of imiquimod. In addition to the normal group, imiquimod cream was topically applied to the shaved back (47 mg) and left ear (15 mg) at 62 mg/mouse per day for 8 consecutive days (from D0 to D7). For administration groups (G2 to G5), the vehicle or test compound was intragastrically administered twice a day from D-1 to D6 and only once on D7. The administration volume was 10 mL/kg in each group. (Note: It is specified that the first application of imiquimod is D0; since it is administered one day earlier, the first administration is D-1).
Inflammatory factors: The skin was taken from the lesion site after the animals were sacrificed on D7, and the relative levels of interleukin 17, interleukin 6, and tumor necrosis factor α were detected using fluorescence quantitative PCR.
(§3) Experimental data were expressed as Mean±SEM; data were statistically analyzed using one-way ANOVA in GraphPad Prism software, and p<0.05 was considered a significant difference between the two groups.

In assay [2] the test system is imiquimod-induced psoriasis model. Kind of assay: Imiquimod-induced psoriasis model in mice: pathological score, ear thickness, spleen weight. Conditions: Mean±SEM; for Spleen weight: D7; for Increased ear thickness: D7 relative to D0. Format: in vivo, BALB/c mice. As for the experimental part: It is to evaluate the efficacy of compounds on imiquimod-induced psoriasis model in BALB/c mice.
Animals: BALB/c mice, male, 18 to 20 g; source: Zhejiang Vital River Laboratory Animal Technology Co., Ltd.
as §1, §2
Clinical score: Clinical disease scores for erythema, scale, and thickness were measured daily according to a grading system, and cumulative scores were calculated.
Ear thickness: The left ear thickness was measured on D0, D3, D5, and D7 for a total of 4 times, and the increased ear thickness on D7 relative to D0 was calculated.
Spleen weight: The spleen weight was measured after the animals were sacrificed on D7.
as §3

`O=C1CCC(c2noc3c(NC(=O)CN4CCN(C[C@H]5CC[C@H](n6cc(NC(=O)c7cnn8ccc(N9C[C@H]%10C[C@@H]9CO%10)nc78)c(C(F)F)n6)CC5)CC4)cccc23)C(=O)N1` (stereo partly drawn) [WX015]: in assay [1] (30 mg/kg BID), the “Interleukin 6 relative level” value is 8.0 ± 3.3, the “Interleukin 17 relative level” value was 102.4 ± 36.9 and the “Tumor necrosis factor α relative level” value turned out to be 5.2 ± 0.7. Also, in assay [1] (100 mg/kg BID), the “Interleukin 6 relative level” value worked out at 13.8 ± 2.3, the “Interleukin 17 relative level” value came to 113.1 ± 49.4 and the “Tumor necrosis factor α relative level” value was determined as 5.2 ± 0.8. Moreover, in assay [1] (300 mg/kg BID), the “Interleukin 6 relative level” value came to 4.7 ± 2.0, the “Interleukin 17 relative level” value was found to be 97.3 ± 35.3 and the “Tumor necrosis factor α relative level” value is 3.7 ± 0.6. In assay [2] (30 mg/kg BID intragastric), the Spleen weight was 175.78 ± 13.01 mg, the Increased ear thickness came to 208 ± 6 µm and the Pathological score is 20.2 ± 0.89. In assay [2] (100 mg/kg BID intragastric), this compound had a Spleen weight of 153.78 ± 11.67 mg, an Increased ear thickness of 217 ± 5.67 µm and a Pathological score of 20.5 ± 1.18. Besides, in assay [2] (300 mg/kg BID intragastric), the Spleen weight is listed as 132.78 ± 3.94 mg, the Increased ear thickness came to 185 ± 2.68 µm and the Pathological score is 19.0 ± 0.55.
